The subject of data set [1] is U937 cells. Nature of the data set: Proliferation assay (trypan blue exclusion cell counting) in U937 cells. It is filed as cell-based, human. Conditions: time-point treatment. On the procedure: (§1) The AML U937 cell line (ATCC) was grown in Roswell Park Memorial Institute (RPMI) 1640 Medium with the addition of 10% fetal bovine serum (FBS), 1% L‐glutamine, and 1% antibiotics (100 U/mL penicillin, 100 µg/mL streptomycin, and 250 ng/mL amphotericin‐B). Cells have been authenticated by STR profiling.
Trypan blue exclusion cell counting has been used to trace the number of cells over the different times of analysis.

For data set [2], the target named is T1, BRD7 (Homo sapiens, UniProt Q9NPI1).
T1 construct: WB analysis showing BRD9 and BRD7 protein levels following 48‐hours treatment with compound 9; endogenous in cells; host or cells: U937 (ATCC)
T1 sequence (Q9NPI1 1-651): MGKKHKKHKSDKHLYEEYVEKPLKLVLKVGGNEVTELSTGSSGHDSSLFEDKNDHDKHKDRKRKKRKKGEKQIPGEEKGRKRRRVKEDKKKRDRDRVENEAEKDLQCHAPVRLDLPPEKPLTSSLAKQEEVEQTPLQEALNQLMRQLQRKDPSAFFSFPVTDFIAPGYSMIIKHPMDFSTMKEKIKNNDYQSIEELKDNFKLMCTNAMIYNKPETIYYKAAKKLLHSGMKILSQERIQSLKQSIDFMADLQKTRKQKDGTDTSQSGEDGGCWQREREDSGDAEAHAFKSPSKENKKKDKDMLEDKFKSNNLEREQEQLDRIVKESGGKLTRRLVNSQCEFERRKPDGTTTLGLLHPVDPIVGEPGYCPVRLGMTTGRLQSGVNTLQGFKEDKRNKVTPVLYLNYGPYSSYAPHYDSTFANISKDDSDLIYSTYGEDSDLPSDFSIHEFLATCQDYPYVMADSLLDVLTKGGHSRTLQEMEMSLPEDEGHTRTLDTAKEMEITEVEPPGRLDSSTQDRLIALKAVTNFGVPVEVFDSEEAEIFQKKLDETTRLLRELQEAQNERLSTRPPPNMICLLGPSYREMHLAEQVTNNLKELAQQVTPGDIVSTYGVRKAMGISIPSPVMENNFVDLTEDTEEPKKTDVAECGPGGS
Kind of data set: Western blotting of BRD7 protein levels in U937 cells. The following applies: 48 hours treatment, western blot. It is filed as cell-based. On the procedure:
as §1
Western blot was performed according to the previous protocol.^[ [71], [72] ^] U937 AML cells were pelleted and then lysed in RIPA buffer (1% Triton X‐100, 0.1% SDS, 150 mM NaCl, 1 mM EDTA pH 8, 10 mM Tris‐HCl pH 8) added with 1% protease inhibitor cocktail. The resulting lysate was subjected to centrifugation for 15 minutes at 4 °C. After that, the supernatant was collected and supplemented with 6X Laemmli buffer (0.217 M Tris‐HCl pH 8.0, 52.17% SDS, 17.4% glycerol, 0.026% bromophenol blue, 8.7% beta‐mercapto‐ethanol) and boiled for 3 minutes at 99 °C,25 µg of protein extract were resolved by SDS‐polyacrylamide gel electrophoresis and then transferred on nitrocellulose membrane (Bio‐Rad). The membrane was probed with anti‐BRD9 (Bethyl Laboratories #A303‐781A), anti‐BRD7 (Invitrogen #PA5‐40379), anti‐GADPH (Elabscience # E‐AB‐40337), and anti‐α‐tubulin (Elabscience # E‐AB‐20036). The protein signal was visualized by enhanced chemiluminescence method (ECL) through the Bio‐Rad Chemidoc machine. ImageJ software was used for densitometric analysis. […]
A general note: In western blotting, separated proteins are transferred to a membrane and probed.

For data set [3], the target named is T2, BRD9 (Homo sapiens, UniProt Q9H8M2).
T2 construct: WB analysis showing BRD9 protein levels following 48‐hours treatments with compounds 2−8; endogenous in cells; host or cells: U937 (ATCC)
T2 sequence (Q9H8M2 1-597): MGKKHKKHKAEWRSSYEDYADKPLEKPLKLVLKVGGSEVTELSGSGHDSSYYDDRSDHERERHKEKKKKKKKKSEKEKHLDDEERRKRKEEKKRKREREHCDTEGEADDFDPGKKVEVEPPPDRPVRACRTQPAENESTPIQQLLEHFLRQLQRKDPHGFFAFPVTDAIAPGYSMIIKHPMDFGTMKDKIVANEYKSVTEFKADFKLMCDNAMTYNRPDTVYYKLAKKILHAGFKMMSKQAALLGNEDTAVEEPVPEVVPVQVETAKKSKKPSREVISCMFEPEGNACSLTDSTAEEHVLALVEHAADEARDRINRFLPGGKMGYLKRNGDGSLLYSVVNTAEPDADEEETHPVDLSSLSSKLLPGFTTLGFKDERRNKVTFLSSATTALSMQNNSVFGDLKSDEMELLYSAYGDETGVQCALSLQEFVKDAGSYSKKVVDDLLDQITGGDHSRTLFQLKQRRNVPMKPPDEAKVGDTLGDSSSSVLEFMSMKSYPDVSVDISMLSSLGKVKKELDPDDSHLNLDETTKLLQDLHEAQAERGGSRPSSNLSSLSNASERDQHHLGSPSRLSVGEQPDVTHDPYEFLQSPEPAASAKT
Kind of data set: Western blotting of BRD9 protein levels in U937 cells. The data set is classed as cell-based. On the procedure: Cells have been authenticated by STR profiling.
Western blot was performed according to the previous protocol.^[ [71], [72] ^] U937 AML cells were pelleted and then lysed in RIPA buffer (1% Triton X‐100, 0.1% SDS, 150 mM NaCl, 1 mM EDTA pH 8, 10 mM Tris‐HCl pH 8) added with 1% protease inhibitor cocktail. The resulting lysate was subjected to centrifugation for 15 minutes at 4 °C. […] The protein signal was visualized by enhanced chemiluminescence method (ECL) through the Bio‐Rad Chemidoc machine. ImageJ software was used for densitometric analysis.

Data set [4] is described as follows: Human plasma stability. It is filed as in vitro ADME. Conditions: incubation up to 120 minutes, 37 °C, read-out: compound recovery after incubation with human plasma. On the procedure: The plasma stability of compounds 2 and 9 was evaluated. Briefly, the plasma was equilibrated at 37 °C, and biotransformation was initiated by adding the compound solution and mixing. At each specified time point (0, 60, and 120 minutes), test compounds were extracted into 200 µL ice‐cold methanol to stop degradation. Tolbutamide was added during the quenching phase. Finally, the concentration of the test compound was monitored by LC‐MS. The percentage of the test compound remaining at each individual time point was reported. The results are reported as mean ± SD from three independent experiments. Procaine and procainamide were used as controls.

Each structure is given as a SMILES string.

We go through 1 compound from PMC12172596, “Unveiling New Triazoloquinoxaline‐Based PROTACs Designed for the Selective Degradation of the ncBAF Chromatin Remodeling Subunit BRD9” (Chemistry (Weinheim an Der Bergstrasse, Germany), 2025).

Regarding `CCCCc1nnc2c(Nc3cccc(NC(=O)CCCCCCOCCOCC(=O)N[C@H](C(=O)N4C[C@H](O)C[C@H]4C(=O)NCc4ccc(-c5scnc5C)cc4)C(C)(C)C)c3)nc3ccccc3n12` [compound 9], the AML cell proliferation result in data set [1] is “negatively affected AML cell proliferation”. Further, the BRD7 protein levels result in data set [2] was “not interfering with BRD7 protein levels”. Also, the “BRD9 protein levels with proteasome inhibitor MG132” value in data set [3] (48 hours treatment with or without MG132 (25 µM for 6 hours)) is “MG132 treatment rescued BRD9 depletion”. Also, the “concentration at which BRD9 degradation is effectively induced” value in data set [3] (48 hours treatment, western blot) was 1 µM. In addition, the recovery at 120 min in data set [4] is no less than 90%.
